Entries after “also recorded” stand apart in the source; their conditions may differ. Where two headings read alike, the source gives them in different places.
Tests used:
[1] = type: physicochemical
[2] = type: physicochemical; remark: listed apart in the source
[3] = cited from earlier work
[4] = type: physicochemical; remark: listed apart in the source
[5] = type: physicochemical; settings: pH 4
[6] = type: physicochemical; remark: listed apart in the source
[7] = type: physicochemical; remark: listed apart in the source
[8] = type: physicochemical; remark: listed apart in the source

In the case of N=C1NC(O)C2C3OC4(O)O[C@@H](C(O)C2(N1)[C@@H]4O)C3(O)CO (stereo partly shown) [TTX, octahydro-12-(hydroxymethyl)-2-imino-5,9:7,10a-dimethano-10aH-(1,3)dioxocino(6,5-d)-pyrimidine-4,7,10,11,12-pentanol], the “TTX solubility (observation)” value [1] is reported as “Deposits in the vial; also recorded: Partially solubilized; also recorded: Almost fully solubilized”, the “solubility of TTX in a combination of organic solvents and acids” value [2] is reported as “below 30 μg/ml” and the “TTX Solubility” value ([2]; pH 3.7) is reported as “Not soluble”. For the same compound, the “TTX Solubility” value ([2]; pH 4.6) was “Not soluble”, the pKa [3] was 9.4 and the “solubility of TTX in pure organic solvents” value [4] was “below 30 μg/ml”. The “concentration up to which TTX was sufficiently soluble” value [5] was at least 300 µg/mL, the “concentration up to which TTX was soluble” value [6] was “about 150 ug/mL” and the “concentration at which TTX was found to be solubilized” value [7] was 300 µg/mL. The “concentration at which TTX was found to be solubilized” value [8] was 300 µg/mL.

Reference: patent publication US20240226105A1 (priority 2021, published 2024)
